The values that follow come from US6750248B2, “Methods for preparing an estrogenic preparation and isolated estrogenic compounds from a plant and uses thereof” (National University of Singapore, priority 2001, dated 2004).

“Also recorded” adds a separate entry of the source. Read-outs that look alike come from different tables or passages of the source.

One series relates to mouse heart allograft. Conditions: cited from earlier work.
For series [1] the following is noted: mice, intra-peritoneal 32 mg/kg/day for 14 days; cited from earlier work.
In series [2] the target is T1, human estrogen receptor ER-alpha (Homo sapiens, UniProt P03372).
T1 construct: expressed in transfected cells; host or cells: Hela cells, transient co-transfection with lipofectamine
T1 sequence (P03372 1-595): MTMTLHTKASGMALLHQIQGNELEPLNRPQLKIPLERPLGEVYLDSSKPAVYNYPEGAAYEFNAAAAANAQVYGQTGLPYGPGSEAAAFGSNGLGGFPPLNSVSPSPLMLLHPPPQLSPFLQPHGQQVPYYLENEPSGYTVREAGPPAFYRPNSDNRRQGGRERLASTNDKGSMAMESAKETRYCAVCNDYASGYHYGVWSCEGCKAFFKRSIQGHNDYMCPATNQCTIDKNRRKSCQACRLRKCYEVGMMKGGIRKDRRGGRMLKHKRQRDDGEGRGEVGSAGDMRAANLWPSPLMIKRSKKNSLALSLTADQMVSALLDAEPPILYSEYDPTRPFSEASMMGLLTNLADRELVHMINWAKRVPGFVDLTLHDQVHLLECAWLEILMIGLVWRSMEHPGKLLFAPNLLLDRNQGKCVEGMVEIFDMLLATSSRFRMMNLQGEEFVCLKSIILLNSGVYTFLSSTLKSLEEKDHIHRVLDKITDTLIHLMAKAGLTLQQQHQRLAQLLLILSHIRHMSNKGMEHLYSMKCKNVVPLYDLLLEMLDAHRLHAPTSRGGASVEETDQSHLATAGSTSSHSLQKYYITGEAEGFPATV
Put plainly: ER-alpha MMTV-ERE-LUC luciferase reporter gene assay in transiently co-transfected Hela cells. It counts as cell-based. Here is the method: (§1) To assay estrogen receptor agonist activity, Hela cells were grown in 24-well microtiter plates and then transiently co-transfected with two plasmids using lipofectamine. The first plasmid comprised DNA encoding human estrogen receptor (either ER-alpha or ER-beta), and the second plasmid comprised an estrogen-driven reporter system comprising: a luciferase reporter gene (LUC) whose transcription is under the control of upstream regulatory elements comprising 4 copies of the vitelogenin estrogen response element (ERE) cloned into the mouse mammary tumor virus (MMTV) promoter (the full name for the reporter system being “MMTV-ERE-LUC”). Cells were exposed to herbal extracts in RPMI 1640 medium, supplemented with 10% charcoal-treated fetal calf serum, 2 mM L-glutamine, 0.1 mM non-essential amino acids and 1 mM sodium pyruvate for 42-48 hours at 37° C. in a 5% carbon dioxide incubator. […] Replicate wells exposed to the solvent in which herbal extracts were dissolved (i.e. ethanol or methanol) were used as negative controls. After the 42-48 hr incubation period, cells were rinsed with phosphate buffered saline(PBS), lysis buffer (Promega Corp) was added, and cell lysates collected for measurement of luciferase activity with a luminometer. […] All data points are in triplicate.

Series [3] addresses T2, human estrogen receptor ER-beta (Homo sapiens, UniProt Q92731).
T2 construct: expressed in transfected cells; host or cells: Hela cells, transient co-transfection with lipofectamine
In words: ER-beta MMTV-ERE-LUC luciferase reporter gene assay in transiently co-transfected Hela cells. The series is classed as cell-based. The settings on record: for ER-alpha versus ER-beta selectivity (in words): compared with ER-alpha. The method, then:
as §1
For orientation: Reporter assays use an easily measured gene product as a stand-in for the process of interest.

Series [4] has as its system human estrogen receptor (either ER-alpha or ER-beta). Put plainly: Estrogen receptor bioassay as in Example 1, ER subtype not stated. The series is classed as cell-based. The settings on record: under the conditions described herein. The method, then: as §1
The next series has as its system estrogen receptors. Conditions: cited from earlier work.

T2 sequence (Q92731 whole entry): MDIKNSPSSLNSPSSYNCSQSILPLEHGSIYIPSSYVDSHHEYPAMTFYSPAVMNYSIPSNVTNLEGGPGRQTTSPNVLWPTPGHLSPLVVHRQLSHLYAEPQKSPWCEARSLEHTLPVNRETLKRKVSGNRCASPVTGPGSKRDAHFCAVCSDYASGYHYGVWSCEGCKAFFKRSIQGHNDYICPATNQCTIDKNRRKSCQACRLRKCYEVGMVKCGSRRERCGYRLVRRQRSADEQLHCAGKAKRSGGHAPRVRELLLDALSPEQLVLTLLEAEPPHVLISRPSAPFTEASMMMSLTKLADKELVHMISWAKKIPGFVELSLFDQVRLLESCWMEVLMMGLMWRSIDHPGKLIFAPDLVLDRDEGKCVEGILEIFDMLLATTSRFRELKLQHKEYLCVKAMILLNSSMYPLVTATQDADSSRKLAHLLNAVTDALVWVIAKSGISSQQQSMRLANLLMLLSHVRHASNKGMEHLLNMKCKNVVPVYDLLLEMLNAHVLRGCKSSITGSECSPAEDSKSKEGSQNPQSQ

With `COc1ccc(-c2oc3c(CC=C(C)C)c(O)cc(O)c3c(=O)c2O[C@@H]2O[C@@H](C)[C@H](O)[C@@H](O)[C@H]2O)cc1` [Baihuoside I], the “Mouse heart allograft survival” value in the series on mouse heart allograft was “effective at prolonging mouse heart allograft survival”. Moreover, the Side effects entry in series [1] is “no side effects”.
As to `CC(C)=CCc1cc(-c2cc(=O)c3c(O)cc(O)cc3o2)ccc1O` [Compound I, yinyanghuo D], the “ER-alpha agonist activity (in words)” value in series [2] was “can activate both ER-alpha and ER-beta”; in series [2] (listed as AF6), “strong ER-alpha and ER-beta activity”. Further, the “Estrogenic activity (fold increased over vehicle), ER-alpha” value in series [2] (dose 0.05 μg/ml) came to 4.940 fold; in series [2] (dose 0.5 μg/ml), 9.089 fold; in series [2] (dose 5 μg/ml) it was 11.618 fold. For the same compound, the “ER-beta agonist activity (in words)” value is “can activate both ER-alpha and ER-beta” in series [3]; “strong ER-alpha and ER-beta activity” in series [3] (listed as AF6). The “ER-alpha versus ER-beta selectivity (in words)” value in series [3] (listed as AF6) is “activate both ER-alpha and ER-beta equally; also recorded: estrogen receptor agonist activity on both ER-alpha and ER-beta”. For the same compound, the entries for the “Estrogenic activity (fold increased over vehicle), ER-beta” value in series [3] (dose 0.05 μg/ml), in series [3] (dose 0.5 μg/ml) and in series [3] (dose 5 μg/ml) were 2.598 fold, 18.763 fold and 13.289 fold, respectively.
Take `CC(C)=CCc1cc(-c2cc(=O)c3c(O)cc(O)cc3o2)cc2c1OC(C(C)(C)O)C2O` (stereo not drawn) [Compound III]: the “ER-alpha activity as % of that of estradiol” value in series [2] is recorded as 26%. Besides, the “ER-alpha agonist activity (in words)” value in series [2] is given as “very weak ER alpha activity”. Besides, the “Estrogenic activity (fold increased over vehicle), ER-alpha” value is 1.031 fold in series [2] (dose 0.05 μg/ml), 2.357 fold in series [2] (dose 0.5 μg/ml) and 2.694 fold in series [2] (dose 5 μg/ml). For the same compound, in series [3], the “Concentration with ER-beta activity equivalent to estradiol at 1 nM” value is 15 ng/mL. For the same compound, in series [3], the “ER-beta agonist activity (in words)” value is given as “activated ER-beta strongly”. Further, the “Factor by which ER-beta is activated more strongly than ER-alpha” value in series [3] (at 5 μg/ml) was “about nine-fold”. The “ER-alpha versus ER-beta selectivity (in words)” value is given as “activates ER-beta more strongly than it activates ER-alpha; also recorded: shows specificity for ER-beta” in series [3] and “stronger than that observed for ER-alpha estrogen receptors” in series [3] (listed as AF1). Also, the “Estrogenic activity (fold increased over vehicle), ER-beta” value was determined as 1.514 fold in series [3] (dose 0.05 μg/ml), 6.093 fold in series [3] (dose 0.5 μg/ml) and 23.132 fold in series [3] (dose 5 μg/ml). Besides, in series [3] (dose-dependent), the “ER-beta stimulatory activity compared with estradiol (in words)” value is reported as “stronger than that observed for estradiol”.
For `C=C(C)C(O)Cc1cc(-c2cc(=O)c3c(O)cc(O)cc3o2)cc(CC(O)C(=C)C)c1O` (stereo not drawn) [Compound II], the “Estrogenic activity (in words)” value in series [4] is recorded as “no detectable estrogenic activity”.
With `O=c1cc(-c2ccc(O)c(O)c2)oc2cc(O)cc(O)c12` [Luteolin], in the series on estrogen receptors, the “Relative potency of estrogenic activity compared to genistein” value is given as 58%.
For the compound `O=c1c(O)c(-c2ccc(O)c(O)c2)oc2cc(O)cc(O)c12` [quercetin], the “Relative potency of estrogenic activity compared to genistein” value with estrogen receptors was 10%.
